Results: US11396516B2, “Tricyclic compounds as Cyp1 inhibitors” (The General Hospital Corporation, priority 2017, dated 2022)
Entries after “also recorded” stand apart in the source; their conditions may differ. Marks after values point to notes of the source that are not given here.

Columns and labels:
[1] = system: zebrafish embryos treated with DOX (cardiomyopathy phenotype); assay: Zebrafish doxorubicin cardiomyopathy model (rescue from phenotype); format: in vivo; details: visnagin 20 μM plus AHR agonist
CYP1 enzymes = assay: Zebrafish CYP1 enzyme levels after DOX treatment; details: for levels of CYP1 enzymes after doxorubicin treatment: doxorubicin alone
HL-1 cardiomyocytes = assay: Cultured HL-1 cardiomyocyte model (DOX-induced apoptosis, viability); format: cell-based, mouse; details: doxorubicin 5 μM
Description: The cardiomyocyte cell line HL-1 derived from mouse atrial tumor was a gift from W. Claycomb. Cells were cultured as previously published (Claycomb et al., 1998) and treated with doxorubicin 5 μM with or without the tested compounds at a concentration up to 50 μM. Viability was assessed after 18 hours of using a CellTiter-Glo Luminescent assay from Promega. Each dose-response experiment was repeated three times.
Compounds were tested in HL-1 cultured cardiomyocytes to assess for efficacy in preventing DOX-induced apoptosis. Cell viability was assessed as described in the materials and methods section.

zebrafish embryos = assay: Zebrafish toxicity in the absence of doxorubicin (TD50); details: absence of doxorubicin treatment
Description: Dose-response curves were constructed using Prism (GraphPad). Raw data representing percent rescue at each dose was log-transformed, and EC50 values were calculated using nonlinear regression analysis. The median toxic dose (TD50) was defined for each compound by assessing for pericardial edema, non-specific deformities, and death in the absence of doxorubicin treatment (data not shown). Concentrations at and above the TD50 (toxic dose) were excluded from dose-response curves.

[2] = system: DOX-induced cardiac apoptosis in C57/B16 mice; assay: Mouse annexin model of acute DOX-induced cardiotoxicity (Anx-750 imaging); format: in vivo
Description: DOX fluorescence imaging was carried out on IVIS spectrum with the filter setting 500 nm excitation/600 nm emission, 30 second exposure, with 135 μm in-plane resolution. A series of DOX phantoms, ranging from 0 to 0.03 mM was prepared in saline, and imaged on the IVIS spectrum with identical settings. Anx-750 fluorescence was detected with the filter setting 745 nm excitation/800 nm emission, 30 second exposure, and 135 μm resolution.
Annexin and DOX fluorescence signal was quantified and analyzed in ImageJ (National Institute of Health). For each heart, fluorescence intensity was averaged across 4-6 slices. Annexin uptake was normalized to the saline injected control animals. DOX fluorescence in the heart was quantified by calculating the signal-to-noise ratio (SNR=mean fluorescence intensityheart/standard deviationair). A threshold of two standard deviations above the saline injected control animals was applied to all DOX injected animals, with or without therapeutics. Only animals that met the threshold (thus DOX positive hearts) were included in the analysis. All statistical analysis was performed in Prism (Graphpad).
Doxorubicin was dissolved in 0.9% normal saline and administered at a dose of 15 mg/kg to adult C57/B16 mice via i.p. injection. For the treatment arm, compound of example 2 was dissolved in 10% DMSO and 90% olive oil (carrier) or carrier alone was administered via intraperitoneal injection on the contralateral side.
Twenty-two hours after DOX and treatment injections, Anx-750 (Annexin Vivo 750, Perkin Elmer) was injected intravenously according to manufacturer's instructions. After 2 hours of probe circulation, hearts were excised, sectioned into 1-mm slices along the short axis, and imaged on a commercial imaging system (IVIS spectrum, Perkin Elmer) to assess apoptosis as previously described (Chen et al., 2011).
DOX uptake in the heart was assessed by reflectance fluorescence imaging, and the resultant apoptosis was simultaneously imaged with Anx-750, a near-infrared fluorescent Annexin V probe (Annexin-Vivo 750 is an Annexin V conjugate with a near-infrared fluorochrome, see Chen et al., 2011). […] Referring to FIGS. 1A-1D, * p<0.05, ** p<0.01, and *** p<0.001, ANOVA. Carrier=10% DMSO+90% olive oil.

[3] = system: zebrafish embryos treated with DOX (cardiomyopathy phenotype); assay: Zebrafish doxorubicin cardiomyopathy model (rescue from phenotype); format: in vivo; details: Danio rerio; rescue from DOX (100 μM) cardiomyopathy phenotype, 40 hours post-treatment; read-out: EC50 is zebrafish
Description: Zebrafish embryos at 30 hours post-fertilization were treated with DOX at 100 μM in 96-well plates as previously described (Liu et al., 2014). Tested compounds were dissolved in DMSO and added at concentrations ranging from 3 nM to 10 μM (n=6 fish per dose; <1% DMSO v/v). The cardiomyopathy phenotype (decreased cardiac contraction, pericardial edema, and decreased tail blood flow) was assessed under light microscopy (5× magnification) at 40 hours post-treatment (hpt). Percent rescue from the cardiomyopathy phenotype was calculated for each concentration tested. Zebrafish were considered to be rescued from DOX-induced cardiomyopathy if all three features of the phenotype were absent. For the tested compounds, each dose-response experiment was repeated three times.
Dose-response curves were constructed using Prism (GraphPad).
Zebrafish were treated with DOX and assessed for the development of the cardiomyopathy phenotype (decreased cardiac contraction, pericardial edema, and decreased tail blood flow). Zebrafish were considered to be rescued if all three features of the cardiomyopathy phenotype were absent upon co-treatment with a tested compound. Referring to FIGS. 3-9, data are depicted as mean+/−standard error (n=6 fish per dose; each experiment performed in triplicate).

CYP2D6 = CYP2D6 (Homo sapiens (Human), UniProt P10635); assay: CYP inhibition assay, human liver microsomes; format: biochemical; details: dextromethorphan 5 μM
Description: (§1) CYP inhibition experiments were performed by Cerep Panlabs (Eurofins) using human liver microsomes and the following substrates: phenacetin 10 μM (CYP1A), buproprion 100 μM (CYP2B6), paclitaxel 10 μM (CYP2C8), diclofenac 10 μM (CYP 2C9), omeprazole 0.5 μM (CYP2C19), dextromethorphan 5 μM (CYP2D6), and testosterone 50 μM (CYP3A). Metabolites of each substrate were measured using LC-MS/MS. Mean percent inhibition was calculated using the following reference inhibitors: furafylline (CYP1A), clopidogrel (CYP2B6), montelukast (CYP2C8), sulfaphenazole (CYP2C9), oxybutynin (CYP2C19), quinidine (CYP2D6), and ketoconazole (CYP3A). […] All concentrations were tested in duplicate to obtain the final results.
(§2) The ability of the tested compounds to inhibit a panel of CYP enzymes in vitro was assessed using a series of human liver microsome assays.

CYP2B6 = CYP2B6 (Homo sapiens (Human), UniProt P20813); assay: CYP inhibition assay, human liver microsomes; format: biochemical; details: buproprion 100 μM
Description: as §1, §2

CYP3A = CYP3A (Homo sapiens, UniProt P08684); assay: CYP inhibition assay, human liver microsomes; format: biochemical
Description: as §1, §2

CYP1A [4] = biological target: CYP1A (Homo sapiens (Human), UniProt P05177); assay: CYP inhibition assay, human liver microsomes; format: biochemical; details: human liver microsomes, phenacetin 10 μM; read-out: IC50 (M) CYP1A
Description: as §1, §2

CYP2C8 = CYP2C8 (Homo sapiens (Human), UniProt P10632); assay: CYP inhibition assay, human liver microsomes; format: biochemical; details: paclitaxel 10 μM, reference montelukast
Description: as §1, §2

CYP2C9 = CYP2C9 (Homo sapiens (Human), UniProt P11712); assay: CYP inhibition assay, human liver microsomes; format: biochemical; details: diclofenac 10 μM, reference sulfaphenazole
Description: as §1, §2

CYP2C19 = CYP2C19 (Homo sapiens (Human), UniProt P33261); assay: CYP inhibition assay, human liver microsomes; format: biochemical; details: omeprazole 0.5 μM
Description: as §1, §2

CYP1A [5] = assay: Zebrafish CYP1A Western blot; format: in vivo; details: co-treatment with DOX, 10 μM
Description: Assessing RNA and protein levels was performed using quantitative PCR (FIG. 2A) and Western blot with a zebrafish-specific antibody against CYP1A (FIG. 2B). […] This effect was seen as early as 18 hours post-treatment, prior to the development of the cardiomyopathy phenotype at 42 hours post-treatment.

gstp2 = assay: Zebrafish proteomics; format: in vivo; details: zebrafish embryos, 40 hours post-treatment; visnagin 20 μM
LOC100332237 = assay: Zebrafish proteomics; format: in vivo; details: zebrafish embryos, 40 hours post-treatment; visnagin 20 μM
slc2a1a = assay: Zebrafish proteomics; format: in vivo; details: zebrafish embryos, 40 hours post-treatment; visnagin 20 μM
rad9a = assay: Zebrafish proteomics; format: in vivo; details: zebrafish embryos, 40 hours post-treatment; visnagin 20 μM
[6] = patients treated with DOX; cited from earlier work
thbs1b = assay: Zebrafish proteomics; format: in vivo; details: zebrafish embryos, 40 hours post-treatment; visnagin 20 μM
[7] = system: myosin heavy chain B (MYHB); assay: Zebrafish proteomics; format: in vivo
Description: (§3) Expression levels of 6085 proteins were measured in zebrafish treated with doxorubicin with or without visnagin. […] This is in contrast to other proteins that were modulated to a similar extent in fish treated with doxorubicin but were not reversed by co-treatment with visnagin. For instance, levels of myosin heavy chain B (MYHB) were decreased in fish treated with DOX alone and in fish treated with DOX+visnagin. Downregulation of MYHB has been previously described with DOX treatment (Ito H, PNAS 1990). Likewise, the inflammatory marker C-reactive protein 3 (CRP3) was increased in both DOX and DOX+visnagin-treated fish.

[8] = system: C-reactive protein 3 (CRP3); assay: Zebrafish proteomics; format: in vivo
Description: as §3

sqstm1 = assay: Zebrafish proteomics; format: in vivo; details: zebrafish embryos, 40 hours post-treatment; visnagin 20 μM
cyp1b1 = assay: Zebrafish proteomics; format: in vivo; details: zebrafish embryos, 40 hours post-treatment; visnagin 20 μM
Description: (§4) The proteomics analysis was carried out as described in the material and methods section. All protein abundance values are normalized to DMSO-treated control zebrafish. * p<0.05 compared to the DMSO control using the Benjamini-Hochberg method of correcting for multiple hypotheses.

cyp1c1 = assay: Zebrafish proteomics; format: in vivo; details: zebrafish embryos, 40 hours post-treatment; visnagin 20 μM
Description: as §4

CYP1A [9] = assay: Zebrafish proteomics; format: in vivo; details: zebrafish embryos, 40 hours post-treatment; visnagin 20 μM
Description: as §4

dhrs13l1 = assay: Zebrafish proteomics; format: in vivo; details: zebrafish embryos, 40 hours post-treatment; visnagin 20 μM

CYP2D6, sequence (P10635 whole entry): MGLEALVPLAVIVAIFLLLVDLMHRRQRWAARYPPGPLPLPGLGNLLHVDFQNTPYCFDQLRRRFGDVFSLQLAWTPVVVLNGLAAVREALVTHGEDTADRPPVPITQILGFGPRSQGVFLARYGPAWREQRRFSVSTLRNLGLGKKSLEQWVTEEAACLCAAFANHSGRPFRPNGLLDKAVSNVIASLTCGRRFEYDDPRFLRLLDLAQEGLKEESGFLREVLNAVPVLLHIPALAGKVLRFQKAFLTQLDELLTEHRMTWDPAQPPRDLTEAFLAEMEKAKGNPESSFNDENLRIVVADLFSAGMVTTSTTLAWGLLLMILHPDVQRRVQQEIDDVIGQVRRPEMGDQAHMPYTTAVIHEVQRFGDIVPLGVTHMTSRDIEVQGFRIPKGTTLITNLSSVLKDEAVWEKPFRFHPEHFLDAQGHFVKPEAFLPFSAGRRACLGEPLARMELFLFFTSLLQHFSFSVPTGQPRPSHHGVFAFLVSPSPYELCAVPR
CYP2B6, sequence (P20813 whole entry): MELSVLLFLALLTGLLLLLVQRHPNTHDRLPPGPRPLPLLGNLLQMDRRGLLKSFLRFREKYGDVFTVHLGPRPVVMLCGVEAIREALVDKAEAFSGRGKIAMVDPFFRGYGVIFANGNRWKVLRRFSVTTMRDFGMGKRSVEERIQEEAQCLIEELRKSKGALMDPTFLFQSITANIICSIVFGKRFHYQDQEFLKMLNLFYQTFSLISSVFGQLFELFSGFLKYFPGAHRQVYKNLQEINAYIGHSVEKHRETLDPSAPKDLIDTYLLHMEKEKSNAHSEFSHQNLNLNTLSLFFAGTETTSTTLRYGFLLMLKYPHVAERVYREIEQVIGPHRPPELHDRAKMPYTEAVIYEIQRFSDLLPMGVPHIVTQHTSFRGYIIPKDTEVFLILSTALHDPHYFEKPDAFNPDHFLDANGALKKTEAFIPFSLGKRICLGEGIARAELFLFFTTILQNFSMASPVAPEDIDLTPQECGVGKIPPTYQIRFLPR
CYP3A, sequence (P08684 2-503 limits assumed): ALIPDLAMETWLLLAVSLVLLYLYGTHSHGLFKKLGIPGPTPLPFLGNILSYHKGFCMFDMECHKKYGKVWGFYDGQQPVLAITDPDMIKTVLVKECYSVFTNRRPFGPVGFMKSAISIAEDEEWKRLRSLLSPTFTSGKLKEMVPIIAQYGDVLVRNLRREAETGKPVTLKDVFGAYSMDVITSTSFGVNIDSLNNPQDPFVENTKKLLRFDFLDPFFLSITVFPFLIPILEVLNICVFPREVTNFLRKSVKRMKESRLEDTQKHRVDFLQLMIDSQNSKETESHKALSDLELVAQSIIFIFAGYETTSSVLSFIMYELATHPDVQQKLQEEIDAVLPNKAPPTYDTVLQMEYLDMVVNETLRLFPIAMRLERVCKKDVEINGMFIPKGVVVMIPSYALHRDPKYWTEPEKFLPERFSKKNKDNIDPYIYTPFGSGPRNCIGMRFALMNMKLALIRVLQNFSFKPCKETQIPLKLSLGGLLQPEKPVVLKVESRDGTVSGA
CYP2C19, sequence (P33261 whole entry): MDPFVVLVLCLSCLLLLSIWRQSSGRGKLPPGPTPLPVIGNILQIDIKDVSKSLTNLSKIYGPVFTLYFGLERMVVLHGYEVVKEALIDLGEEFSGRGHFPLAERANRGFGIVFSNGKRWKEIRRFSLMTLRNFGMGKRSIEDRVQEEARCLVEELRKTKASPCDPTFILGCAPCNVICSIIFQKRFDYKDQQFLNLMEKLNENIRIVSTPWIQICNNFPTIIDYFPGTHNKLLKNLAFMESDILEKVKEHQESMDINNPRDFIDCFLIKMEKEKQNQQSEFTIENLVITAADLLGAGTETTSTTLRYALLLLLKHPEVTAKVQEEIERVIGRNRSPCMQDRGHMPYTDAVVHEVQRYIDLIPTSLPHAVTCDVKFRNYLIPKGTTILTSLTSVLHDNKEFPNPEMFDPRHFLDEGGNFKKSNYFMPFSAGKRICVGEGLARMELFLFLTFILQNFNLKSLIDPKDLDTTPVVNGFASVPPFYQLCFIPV
CYP2C8, sequence (P10632 whole entry): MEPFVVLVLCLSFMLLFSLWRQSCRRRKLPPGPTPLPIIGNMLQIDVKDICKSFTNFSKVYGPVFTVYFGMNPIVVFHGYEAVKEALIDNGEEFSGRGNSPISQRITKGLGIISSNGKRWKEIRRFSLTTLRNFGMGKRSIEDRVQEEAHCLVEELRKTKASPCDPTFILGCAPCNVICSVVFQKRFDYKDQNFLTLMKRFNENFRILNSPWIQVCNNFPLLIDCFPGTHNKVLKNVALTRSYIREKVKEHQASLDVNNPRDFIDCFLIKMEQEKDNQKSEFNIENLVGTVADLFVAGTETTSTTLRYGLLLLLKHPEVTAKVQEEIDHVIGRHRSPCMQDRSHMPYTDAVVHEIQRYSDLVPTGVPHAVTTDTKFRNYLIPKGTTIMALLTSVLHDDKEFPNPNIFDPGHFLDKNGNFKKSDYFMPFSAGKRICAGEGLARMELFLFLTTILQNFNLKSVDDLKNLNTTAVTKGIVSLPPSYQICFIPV
CYP2C9, sequence (P11712 whole entry): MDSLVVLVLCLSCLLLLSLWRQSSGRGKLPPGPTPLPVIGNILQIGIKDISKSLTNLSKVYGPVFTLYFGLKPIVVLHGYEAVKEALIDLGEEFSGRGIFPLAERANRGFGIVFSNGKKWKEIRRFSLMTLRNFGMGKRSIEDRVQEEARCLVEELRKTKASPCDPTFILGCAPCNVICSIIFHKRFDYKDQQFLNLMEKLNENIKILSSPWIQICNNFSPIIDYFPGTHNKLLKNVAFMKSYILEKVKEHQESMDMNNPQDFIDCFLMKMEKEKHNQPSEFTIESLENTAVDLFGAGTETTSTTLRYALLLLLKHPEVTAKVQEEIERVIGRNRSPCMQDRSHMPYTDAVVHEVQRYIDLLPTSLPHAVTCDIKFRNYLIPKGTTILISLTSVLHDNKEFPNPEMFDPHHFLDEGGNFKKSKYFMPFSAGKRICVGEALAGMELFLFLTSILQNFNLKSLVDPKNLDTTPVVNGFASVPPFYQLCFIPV
CYP1A (Homo sapiens (Human), UniProt P05177), sequence (P05177 whole entry): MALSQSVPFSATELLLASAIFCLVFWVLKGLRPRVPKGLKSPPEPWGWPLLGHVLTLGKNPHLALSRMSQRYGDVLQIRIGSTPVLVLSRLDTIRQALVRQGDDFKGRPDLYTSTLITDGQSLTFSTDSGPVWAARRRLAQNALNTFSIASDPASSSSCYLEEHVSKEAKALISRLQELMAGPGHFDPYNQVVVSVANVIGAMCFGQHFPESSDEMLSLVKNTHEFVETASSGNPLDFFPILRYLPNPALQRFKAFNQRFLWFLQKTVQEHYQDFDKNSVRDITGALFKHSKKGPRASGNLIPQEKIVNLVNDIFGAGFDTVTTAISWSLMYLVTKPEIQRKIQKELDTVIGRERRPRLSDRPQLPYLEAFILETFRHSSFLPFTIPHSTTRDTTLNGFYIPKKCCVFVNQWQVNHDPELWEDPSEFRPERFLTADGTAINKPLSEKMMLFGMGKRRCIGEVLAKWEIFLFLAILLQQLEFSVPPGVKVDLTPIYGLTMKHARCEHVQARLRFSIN

## COC(=O)c1csc(C(=O)c2c[nH]c3ccccc23)n1 [methyl 2-(1H-indole-3-carbonyl)-1,3-thiazole-4-carboxylate]
[1]
  effect on visnagin-mediated rescue from doxorubicin-induced cardiomyopathy: abrogated

## CC(C)(C)OC(=O)NCCCOc1c2ccoc2cc2oc(=O)ccc12 [Example 2, tert-butyl (3-((7-oxo-7H-furo[3,2-g]chromen-4-yl)oxy)propyl)carbamate]
CYP1 enzymes; co-treatment with doxorubicin
  effect on DOX-induced increase of CYP1 enzyme levels: completely abolished
HL-1 cardiomyocytes; Mus musculus, HL-1, viability after 18 hours, CellTiter-Glo, read-out: EC50 in HL-1 Cells
  EC50: > 50 µM
HL-1 cardiomyocytes; doses up to 50 μM
  efficacy in HL-1 cell culture model: ineffective
Zebrafish embryos
  toxic dose TD50 in the zebrafish model: > 10 µM
[2]; DOX 15 mg/kg i.p., doses of 0.1 mg/kg, 1 mg/kg and 2 mg/kg i.p., 24 hours
  cardiac apoptosis / Annexin (Anx-750) uptake: significant reduction in apoptosis; also recorded: reduced significantly; also recorded: significant cardioprotective effect
[2]; DOX 15 mg/kg, 0.1 mg/kg i.p.
  Annexin-Vivo fluorescence in the mouse heart / cardioprotection: significantly reduced; also recorded: cardioprotective
[2]; DOX 15 mg/kg, dose of 2 mg/kg
  ex vivo Anx fluorescence in heart: marked reduction
[2]; compared to visnagin
  potency relative to visnagin in reducing DOX-induced cardiomyocyte apoptosis in mice: 250 fold
[3]
  EC50: 0.007 µM
CYP2D6
  IC50: 2 µM
CYP2D6; reference quinidine
  Mean % Inhibition CYP2D6: 84.4%
CYP2B6
  IC50: 88 µM
CYP2B6; reference clopidogrel
  Mean % Inhibition CYP2B6: 67.2%
CYP3A; probe testosterone 50 μM
  IC50: 9.3 µM
CYP3A; testosterone 50 μM, reference ketoconazole
  Mean % Inhibition CYP3A: 62.7%
CYP1A [4]
  IC50: 1.6e-06 M
CYP2C8
  Mean % Inhibition CYP2C8: 7.1%
CYP2C9
  Mean % Inhibition CYP2C9: 2.4%
CYP2C19
  IC50: 12 µM
CYP2C19; reference oxybutynin
  Mean % Inhibition CYP2C19: 57.0%
CYP1A [5]
  induction of CYP1A by DOX, Western blot: mitigated induction of CYP1A

## COc1cccc2c1C(=O)c1c(O)c3c(c(O)c1C2=O)C[C@@](O)(C(=O)CO)C[C@@H]3O[C@H]1C[C@H](N)[C@H](O)[C@H](C)O1 [DOX, doxorubicin]
CYP1 enzymes
  levels of CYP1 enzymes after doxorubicin treatment: robust induction
CYP1 enzymes; listed as doxorubicin
  levels of CYP1 enzymes after doxorubicin treatment: significant upregulation; also recorded: significantly increased
gstp2
  Protein Abundance (Normalized to DMSO) gstp2: 2.32*
LOC100332237
  Protein Abundance (Normalized to DMSO) LOC100332237: 3.03*
slc2a1a
  Protein Abundance (Normalized to DMSO) slc2a1a: 1.19
rad9a
  Protein Abundance (Normalized to DMSO) rad9a: 2.92*
[6]
  patients with dose-dependent cardiotoxicity: up to 9%
thbs1b
  Protein Abundance (Normalized to DMSO) thbs1b: 2.29*
[7]
  levels of myosin heavy chain B (MYHB): decreased
[8]
  levels of C-reactive protein 3 (CRP3): increased
sqstm1
  Protein Abundance (Normalized to DMSO) sqstm1: 2.78*
cyp1b1
  Protein Abundance (Normalized to DMSO) cyp1b1: 6.26*
cyp1c1
  Protein Abundance (Normalized to DMSO) cyp1c1: 7.91*
CYP1A [9]
  Protein Abundance (Normalized to DMSO) cyp1a: 9.52*
[2]; DOX 15 mg/kg + carrier vs saline control
  cardiac annexin uptake, DOX only group: increased significantly
dhrs13l1
  Protein Abundance (Normalized to DMSO) dhrs13l1: 3.02*
